Assay results published in patent US6737383B1, “Herbicidal oxadiazolidines” (priority 1999, dated 2004).

Key:
[1] = tested on: barnyardgrass; test: Test A barnyardgrass; format: in vivo, Echinochloa crus-galli; settings: 0 to 10 scale where 0 is no effect and 10 is complete control
In short: (§1)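 Injury scored visually after about eleven greenhouse days against untreated plants, 0 = no effect, 10 = complete control. Compounds, formulated in surfactant-containing non-phytotoxic solvent, were applied as preemergence soil drench to sandy loam plantings and as postemergence runoff spray at the 1–2 leaf stage.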

[2] = tested on: crabgrass; test: Test A crabgrass; format: in vivo, Digitaria spp.; settings: 0 to 10 scale where 0 is no effect and 10 is complete control
Procedure: (§2) Seeds of barnyardgrass (Echinochloa crus-galli), crabgrass (Digitaria spp.), morningglory (Ipomoea spp.), and velvetleaf (Abutilon theophrasti) were planted into a sandy loam soil and treated preemergence by soil drench with test chemicals formulated in a non-phytotoxic solvent mixture which includes a surfactant At the same time, these crop and weed species were also treated postemergence sprayed to runoff, with test chemicals formulated in the same manner.
(§3) Plants ranged in height from two to eighteen cm and were in the one to two leaf stage for the postemergence treatment. Treated plants and untreated controls were maintained in a greenhouse for approximately eleven days, after which all treated plants were compared to untreated controls and visually evaluated for injury. Plant response ratings, summarized in Table A, are based on a 0 to 10 scale where 0 is no effect and 10 is complete control.

[3] = tested on: morningglory; test: Test A morningglory; format: in vivo, Ipomoea spp.; settings: 0 to 10 scale where 0 is no effect and 10 is complete control
Procedure: as §2, §3

[4] = tested on: velvetleaf; test: Test A velvetleaf; format: in vivo, Abutilon theophrasti; settings: 0 to 10 scale where 0 is no effect and 10 is complete control
In short: as §1

[5] = tested on: maize hybrid P33G26; test: Test G maize injury with safener-treated seed; settings: presence of dichlormid; with the exception of Compound 131 at the rate of 560 g/ha
Procedure: In soil-containing pots were planted seeds of maize hybrid P33G26 that was previously treated with dichlomid, fenchlorazole-ethyl, and naphthalic anhydride (or no safener). The soil surface was then treated with several rates of Compound 131 or Compound 146 dissolved in a non-phytotoxic solvent using a flat-fan sprayer calibrated to deliver 310 L/ha. Treatmemtes were replicated 4 or 5 times. The treated and untreated plants were allowed to grow in a greenhouse using supplementary artificial lighting with a day-length of 14 hours, with the temperature maintained at about 27° C. during the day and 24° C. during the night. Plants were kept watered with a dilute balanced fertilizer solution.
At 28 days after application, the treated plants were compared with untreated controls and vissually evaluated.

[6] = tested on: Pioneer hybrid P33G26 corn; test: Test H corn injury, herbicide and safener mixtures applied to soil; format: in vivo; settings: safeners for Compound 113
Procedure: Mixtures of the herbicide and safeners were applied to pots of a soil mixture previously sown with corn. Pioneer hybrid P33G26 corn was sown in pots containing a sterile mix of 60% sassafras soil and 40% Metro Mix 360® growing medium (pH 6.7, O.M. 2%). Test compounds were dissolved in AGWT (a mixture of 0.25% Tween 20 surfactant, 5% water, 5% glycerin and 89.75% acetone) and sprayed on the soil as pots passed under a stationary 8002E nozzle. Treatments were applied at a 33 gal/acre rate of the AGWT carrier. After treatment, the test pots were placed in the greenhouse and watered. There were two replications for each treatment. Each pot contained eight corn seeds. The pots within each replication were placed in random positions on greenhouse benches. Test plants were fertilized as they were watered with approximately 200 ppm of N (as water soluble 20-20-20 fertilizer) which was metered into the water lines with a fertilizer injector. Daytime temperatures was 23-30° C. and night time temperature was 18-25° C. The test plants were supplemented with artificial lighting. The lights were activated whenever the natural light intensity dropped below the programmed threshold. Day length was maintained for approximately 14 hours.
The test was evaluated approximately 12 days after treatment. […]

[7] = tested on: Abutilon theophrasti (ABUTH); test: Test F preemergence, alone and in mixture with rimsulfuron, ABUTH; format: in vivo; settings: 21 days after treatment
Procedure: (§4) Abutilon theophrasti (ABUTH), Chenopodium album (CHEAL), Amaranthus rudis (AMATA), Setaria faberii (SETFA), Panicum dichotomiflorum (PANDI), and Digitaria sanguinalis (DIGSA) were grown from seed in pots of an artificial potting mixture in a greenhouse. Compounds of the present invention were applied at 70 and 105 g ai/ha preemergence. Rimsulfuron was applied at 8.8 and 17.5 g ai/ha. Mixtures of the compounds of the present invention and rimsulfuron were also applied.
(§5) Following application, the plants were maintained by watering as needed. A fertilizer solution of Peter's 20-20-20 (10 pounds/5 gallons of water) plus Sprint 330, a Iron Chelate micronutrient, (113.5 grams/5 gallons of water) was injected into the water with an Anderson fertilizer injection system to provide approximately 219 ppm of nitrogen with each watering. Artificial lighting was used to supplement natural light to produce a 14 hour photoperiod and: an additional one hour light period was used between 1:00 am to 2:00 am for a night interruption. Greenhouse temperatures were targeted for 27° C. in the day and 21° C. at night. At 21 days after treatment, all plants were evaluated for injury as compared to control plants that were sprayed only with non-phytotoxic solvent.
(§6) Colby's equation was used to calculate the expected additive herbicidal effect of the mixtures of Compound 21 and the mixture partners listed above. […]

[8] = tested on: Chenopodium album (CHEAL); test: Test F preemergence, alone and in mixture with rimsulfuron, CHEAL; format: in vivo; settings: 21 days after treatment
Procedure: as §4, §5, §6

[9] = tested on: Amaranthus rudis (AMATA); test: Test F preemergence, alone and in mixture with rimsulfuron, AMATA; format: in vivo; settings: 21 days after treatment
Procedure: as §4, §5, §6

[10] = tested on: Setaria faberii (SETFA); test: Test F preemergence, alone and in mixture with rimsulfuron, SETFA; format: in vivo; settings: 21 days after treatment
Procedure: as §4, §5, §6

[11] = tested on: Panicum dichotomiflorum (PANDI); test: Test F preemergence, alone and in mixture with rimsulfuron, PANDI; format: in vivo; settings: 21 days after treatment
Procedure: as §4, §5, §6

[12] = tested on: Digitaria sanguinalis (DIGSA); test: Test F preemergence, alone and in mixture with rimsulfuron, DIGSA; format: in vivo; settings: 21 days after treatment
Procedure: as §4, §5, §6

[13] = Alone: Cmpd. 0, Rimsulfuron rate 8.8
[14] = Alone: Cmpd. 0, Rimsulfuron rate 17.5

CC(C)N(C(=O)n1oc(=O)[nH]c1=O)c1ccccc1 [Compound 386]
Plant response rating, Barnyardgrass ([1]; Postemergence, Rate 1000 g/ha): 0 | Plant response rating, Barnyardgrass ([1]; Pre-emergence, Rate 2000 g/ha): 0 | Plant response rating, Crabgrass ([2]; Postemergence, Rate 1000 g/ha): 0 | Plant response rating, Crabgrass ([2]; Pre-emergence, Rate 2000 g/ha): 0 | Plant response rating, Morningglory ([3]; Postemergence, Rate 1000 g/ha): 0 | Plant response rating, Morningglory ([3]; Pre-emergence, Rate 2000 g/ha): 0 | Plant response rating, Velvetleaf ([4]; Postemergence, Rate 1000 g/ha): 0 | Plant response rating, Velvetleaf ([4]; Pre-emergence, Rate 2000 g/ha): 0 | melting point: 116 to 117 °C

C=CCN(CC=C)C(=O)C(Cl)Cl [dichlormid, reference compound]
Safening effect on maize injury [5]: reduced the injury to an insignificant level | Safening of Compound 113 on corn [6]: functioned very effectively as safeners

CCS(=O)(=O)c1cccnc1S(=O)(=O)NC(=O)Nc1nc(OC)cc(OC)n1 [rimsulfuron]
ABUTH Observed [7, 13]: 20% | ABUTH Observed [7, 14]: 40% | CHEAL Observed [8, 13]: 25% | CHEAL Observed [8, 14]: 60% | AMATA Observed [9, 13]: 10% | AMATA Observed [9, 14]: 15% | SETFA Observed [10, 13]: 75% | SETFA Observed [10, 14]: 90% | PANDI Observed [11, 13]: 75% | PANDI Observed [11, 14]: 95% | DIGSA Observed [12, 13]: 95% | DIGSA Observed [12, 14]: 100%
